{"source": "patent US12268901B2", "about": "“Targeting cell tropism receptors to inhibit cytomegalovirus infection” (priority 2017, dated 2025)", "key": {"[1]": {"tested_on": "TB40E-GFP virus binding to ARPE19 cells", "assay": "Peptide blocking assay, cell-binding virus assay (viral DNA by qPCR)", "assay_type": "cell-based, Human cytomegalovirus (HCMV)", "conditions": "different amounts of Peptide 1 preincubated with virus at 37° C. for 2 h, applied to ARPE19 cells at 4° C. for 2 h", "method": "The shPDGFRA, shOR14I1 and shDMBT1 transduced ARPE19 cells were chilled on ice for 20 min and then incubated with chilled TB40E-GFP at the indicated MOT on ice for 1 h. The cells were then washed ten times with cold PBS. Cellular DNA and cell-associated viral DNA were isolated using a DNeasy Blood & Tissue Kit (Qiagen). Viral DNA (UL83) and host DNA ((β-ACTIN) was quantified by real-time quantitative PCR as described (E et al., J Virol 88, 2279-2290 (2014)).\nDNA was isolated from infected ARPE cells using the Dneasy Blood and Tissue DNA mini kit (Qiagen) according to the manufacturer's instructions. Viral genomes were quantified with a primer pair (pp549s and pp812as) and a probe (pp770s) for UL83 (3), and the number of viral genomes normalized to the number of cellular copies of β-ACTIN with a previously described set of primers and probe (4). Unknown sample values were determined on the basis of a standard curve of known copy numbers of UL83 (AD169-BAC) and β-ACTIN (pAB1-bactin-PCRscript) (kind gifts from Donald Coen, Harvard Medical School). […] Real-time PCR was performed and analyzed by using a ViiA7 Real-Time PCR System (Applied Biosystems). […]\nViral binding to ARPE19 cells was evaluated in the presence of Sf9-OR14I1 membrane particles. […] After washing with cold PBS, viral DNA levels were quantified by qPCR. […] After cold PBS washing, viral DNA levels were quantified by qPCR. […]"}, "[2]": {"tested_on": "Akt phosphorylation in ARPE19 cells", "assay": "PI3/Akt signaling induced by virus binding (immunoblot phospho Akt ser473)", "assay_type": "cell-based", "conditions": "Peptide 1 100 ug/ml preincubated with virus at 37° C. for 2 h, ARPE19, 30 minutes post infection", "method": "FIGS. 8A-C. […] (A) Cells were serum starved at 37° C. for overnight and cells were pretreated with DMSO (control), LY294002 (50 uM) in serum-free medium prior to infection for two hours. Plated cells were cooled on ice for 30 mins. Cells were infected by purified TB40E-GFP virus (no serum) at MOI of 2.0 PFU per cell for 2 hours on ice. Cell plates were then shifted to 37° C. incubator (time 0). Cells were harvested at 0, 5, 10 mins post infection. Protein extracts were subjected to immunoblotting with anti-phospho Akt (ser473), Akt or anti-β-actin (loading control). (B) ARPE19 epithelial sgCon and sgOR14I1 knock out cells were serum starved at 37° C. for overnight. Plated cells were cooled on ice for 30 mins. Cells were infected by purified TB40E-GFP virus (no serum) at MOI of 2.0 PFU per cell for 2 hours on ice. Cell plates were then shifted to 37° C. incubator (time 0). Cell were harvested at 0, 5 mins post infection. (C) Peptide 1 (100 ug/ml) was preincubated with TB40E-GFP virus at 37° C. for 2 h and the mixture applied to ARPE19 cells. The phosphorylation of Akt and total Akt were detected 30 minutes post infection of TB40E-GFP.\nCells were serum starved at 37° C. for overnight and cells were pretreated with DMSO (DMSO-carrier control) or LY294002 (50 uM) in serum-free medium prior to infection for two hours. Cell plates were cooled on ice for 30 mins. […]"}}}
{"sequence": "MDNLTKVTEFLLMEFSGIWELQVLHA (N-terminal fragment of OR14I1) [Peptide 1, synthetic peptide representing the N-terminus of OR14I1, position 1-26]", "values": [{"measurement": "TB40E-GFP virus binding to ARPE19 cells (viral DNA by qPCR)", "setting": "[1]", "value": "sufficient to prevent for TB40E-GFP virus binding ARPE19 cells"}, {"measurement": "Akt phosphorylation induced by HCMV infection", "setting": "[2]", "value": "abolished"}]}
